Source: patent US12077555B2, “STAT degraders and uses thereof” (Kymera Therapeutics, Inc., priority 2019, dated 2024)

Target: STAT3 (Homo sapiens, UniProt P40763)
Assay: STAT3 HiBiT degradation assay in transfected A549 cells
Assay type: cell-based
Design: expressed in transfected cells; host or cells: A549
Conditions: A549, 24 h; read-out: STAT3 HiBiT A549 degradation 24 h: Average external-Abs DC50
In short: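 Transfected A549 cells (~2000/well) plated 24 h, then treated 24 h at 37 °C, 5% CO2 with a 3-fold, 10-point compound dilution. HiBiT lytic luminescence read after 10 min at room temperature; remaining STAT3 normalized to negative and positive controls, four-parameter fit. DC50 binned A <0.01, B 0.01–0.1, C 0.1–1.0, D >1.0 µM.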

Chain of STAT3 (P40763 whole entry): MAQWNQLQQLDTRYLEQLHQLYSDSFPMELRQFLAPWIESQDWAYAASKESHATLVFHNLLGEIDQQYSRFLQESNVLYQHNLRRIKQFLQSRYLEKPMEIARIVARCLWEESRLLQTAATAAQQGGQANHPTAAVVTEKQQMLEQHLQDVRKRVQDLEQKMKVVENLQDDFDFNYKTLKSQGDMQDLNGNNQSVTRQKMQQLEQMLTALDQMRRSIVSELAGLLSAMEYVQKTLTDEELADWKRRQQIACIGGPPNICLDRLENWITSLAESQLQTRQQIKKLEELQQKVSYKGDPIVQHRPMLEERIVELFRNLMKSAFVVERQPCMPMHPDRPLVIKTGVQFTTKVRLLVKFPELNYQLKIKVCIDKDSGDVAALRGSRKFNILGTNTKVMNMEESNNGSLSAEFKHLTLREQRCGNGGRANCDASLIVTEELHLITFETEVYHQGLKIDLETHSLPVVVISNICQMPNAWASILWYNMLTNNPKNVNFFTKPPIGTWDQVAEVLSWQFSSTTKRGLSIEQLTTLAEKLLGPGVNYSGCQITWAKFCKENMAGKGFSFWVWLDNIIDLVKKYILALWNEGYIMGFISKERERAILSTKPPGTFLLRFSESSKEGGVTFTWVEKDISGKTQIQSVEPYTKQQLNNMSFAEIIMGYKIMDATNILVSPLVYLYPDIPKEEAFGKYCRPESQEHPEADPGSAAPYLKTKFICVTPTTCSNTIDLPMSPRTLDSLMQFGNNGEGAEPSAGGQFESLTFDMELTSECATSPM

| SMILES | DC50 [nM] |
| --- | --- |
| Cc1ncsc1-c1ccc(CNC(=O)[C@@H]2C[C@@H](O)CN2C(=O)[C@@H](NC(=O)CCCCCc2cccc(CNC(=O)[C@H](CCC(N)=O)NC(=O)[C@@H]3Cc4cccc5c4N3C(=O)[C@@H](NC(=O)c3cc4cc(C(=O)P(=O)(O)O)ccc4[nH]3)CC5)c2)C(C)(C)C)cc1 [Compound I-222, 2-[[(2S,11S)-2-[[(1S)-3-carbamoyl-1--([[3-(5-[[(2S)-1-[(2S,4R)-4-hydroxy-2-([[4-(4-methyl-1,3-thiazol-5-yl)phenyl]methyl]carbamoyl)pyrrolidin-1-yl]-3,3-dimethyl-1-oxobutan-2-yl]carbamoyl]pentyl)phenyl]methyl]carbamoyl)propyl]carbamoyl]-12-oxo-1-azatricyclo[6.4.1.0^[4,13]]trideca-4(13),5,7-trien-11-yl]carbamoyl]-1H-indole-5-carbonylphosphonic acid] | > 1000 |
| Cc1ncsc1-c1ccc(CNC(=O)[C@@H]2C[C@@H](O)CN2C(=O)[C@@H](NC(=O)C2(CCCc3ccc(CO[C@H](C)[C@H](CCC(N)=O)NC(=O)[C@@H]4Cc5cccc6c5N4C(=O)[C@@H](NC(=O)c4cc5cc(C(=O)P(=O)(O)O)ccc5[nH]4)CC6)cc3)CC2)C(C)(C)C)cc1 [Compound I-223, diammonium 2-[[(2S,11S)-2-[[(3S,4R)-1-carbamoyl-4-([4-[3-(1-[[(2S)-1-[(2S,4R)-4-hydroxy-2-([[4-(4-methyl-1,3-thiazol-5-yl)phenyl]methyl]carbamoyl)pyrrolidin-1-yl]-3,3-dimethyl-1-oxobutan-2-yl]carbamoyl]cyclopropyl)propyl]phenyl]methoxy)pentan-3-yl]carbamoyl]-12-oxo-1-azatricyclo[6.4.1.0^[4,13]]trideca-4(13),5,7-trien-11-yl]carbamoyl]-1H-indole-5-carbonylphosphonate] | 100 to 1000 |
| Cc1ncsc1-c1ccc(CNC(=O)[C@@H]2C[C@@H](O)CN2C(=O)[C@@H](NC(=O)CCCCCc2cccc(CC[C@H](CCC(N)=O)NC(=O)[C@@H]3Cc4cccc5c4N3C(=O)[C@@H](NC(=O)c3cc4cc(C(=O)P(=O)(O)O)ccc4[nH]3)CC5)c2)C(C)(C)C)cc1 [Compound I-224, diammonium 2-[[(2S,11S)-2-[[(3R)-1-carbamoyl-5-[3-[5-[[(2S)-1-[(2S,4R)-4-hydroxy-2-([[4-(4-methyl-1,3-thiazo1-5-yl)phenyl]methyl]carbamoyl)pyrrolidin-1-yl]-3,3-dimethyl-1-oxobutan-2-yl]carbamoyl]pentyl)phenyl]pentan-3-yl]carbamoyl]-12-oxo-1-azatricyclo[6.4.1.0^[4,13]]trideca-4(13),5,7-trien-11-yl]carbamoyl]-1H-indole-5-carbonylpho sphonate] | > 1000 |
| Cc1ncsc1-c1ccc([C@H](C)NC(=O)[C@@H]2C[C@@H](O)CN2C(=O)[C@@H](NC(=O)CCCCc2ccc(CO[C@H](C)[C@H](CCC(N)=O)NC(=O)[C@@H]3Cc4cccc5c4N3C(=O)[C@@H](NC(=O)c3cc4cc(C(=O)P(=O)(O)O)ccc4[nH]3)CC5)c(F)c2)C(C)(C)C)cc1 [Compound I-225, diammonium 2-[[(2S,11S)-2-[[(3S,4R)-1-carbamoyl-4-[[2-fluoro-4-(4-[[(2S)-1-[(2S,4R)-4-hydroxy-2-[[(1S)-1-[4-(4-methyl-1,3-thiazol-5-yl)phenyl]ethyl]carbamoyl]pyrrolidin-1-yl]-3,3-dimethyl-1-oxobutan-2-yl]carbamoyl]butyl)phenyl]methoxy]pentan-3-yl]carbamoyl]-12-oxo-1-azatricyclo[6.4.1.0^[4,13]]trideca-4(13),5,7-trien-11-yl]carbamoyl]-1H-indole-5-carbonylphosphonate] | 100 to 1000 |
| Cc1cc(CCCCC(=O)N[C@H](C(=O)N2C[C@H](O)C[C@H]2C(=O)N[C@@H](C)c2ccc(-c3scnc3C)cc2)C(C)(C)C)ccc1CO[C@H](C)[C@H](CCC(N)=O)NC(=O)[C@@H]1Cc2cccc3c2N1C(=O)[C@@H](NC(=O)c1cc2cc(C(=O)P(=O)(O)O)ccc2[nH]1)CC3 [Compound I-226, 2-[[(2S,11S)-2-[[(3S,4R)-1-carbamoyl-4-[[4-(4-[[(2S)-1-[(2S,4R)-4-hydroxy-2-[[(1S)-1-[4-(4-methyl-1,3-thiazol-5-yl)phenyl]ethyl]carbamoyl]pyrrolidin-1-yl]-3,3-dimethyl-1-oxobutan-2-yl]carbamoyl]butyl)-2-methylphenyl]methoxy]pentan-3-yl]carbamoyl]-12-oxo-1-azatricyclo[6.4.1.0^[4,13]]trideca-4(13),5,7-trien-11-yl]carbamoyl]-1H-indole-5-carbonylphosphonic acid] | 10 to 100 |
| Cc1ncsc1-c1ccc([C@H](C)NC(=O)[C@@H]2C[C@@H](O)CN2C(=O)[C@@H](NC(=O)CCCCc2ccc(CO[C@H](C)[C@H](CCC(N)=O)NC(=O)[C@@H]3Cc4cccc5c4N3C(=O)[C@@H](NC(=O)c3cc4cc(C(=O)P(=O)(O)O)ccc4[nH]3)CC5)cc2)C(C)(C)C)cc1 [Compound I-227] | 100 to 1000 |
| Cn1c(=O)n(C2CCC(=O)NC2=O)c2ccc(C3CC(CCCC(=O)N4CC[C@H]5CC[C@@H](C(=O)N[C@@H](CCC(N)=O)C(=O)NC(c6ccccc6)c6ccccc6)N5C(=O)[C@@H](NC(=O)c5cc6cc(C(=O)P(=O)(O)O)ccc6[nH]5)C4)C3)cc21 (stereo partly drawn) [Compound I-228, 2-[[(5S,8S,10aR)-8-[[(1S)-3-carbamoyl-1-(diphenylmethylcarbamoyl)propyl]carbamoyl]-3-(4-[3-[1-(2,6-dioxopiperidin-3-yl)-3-methyl-2-oxo-1,3-benzodiazol-5-yl]cyclobutyl]butanoyl)-6-oxo-octahydropyrrolo[1,2-a][1,5]diazocin-5-yl]carbamoyl]-1H-indole-5-carbonylphosphonic acid] | 100 to 1000 |
| Cn1c(=O)n(C2CCC(=O)NC2=O)c2ccc(CCCCCCc3cc4c5c(c3)C[C@@H](C(=O)N[C@@H](CCC(N)=O)C(=O)NC(c3ccccc3)c3ccccc3)N5C(=O)[C@@H](NC(=O)c3cc5cc(C(=O)P(=O)(O)O)ccc5[nH]3)CC4)cc21 (stereo partly drawn) [Compound I-229, 2-[[(2S,11S)-2-[[(1S)-3-carbamoyl-1-(diphenylmethylcarbamoyl)propyl]carbamoyl]-6-[6-[1-(2,6-dioxopiperidin-3-yl)-3-methyl-2-oxo-1,3-benzodiazol-5-yl]hexyl]-12-oxo-1-azatricyclo[6.4.1.0 [4,13]]-trideca-4(13),5,7-trien-11-yl]carbamoyl]-1H-indole-5-carbonylphosphonic acid] | 10 to 100 |
| Cn1c(=O)n(C2CCC(=O)NC2=O)c2ccc(CC3CCC(CC(=O)N4CC[C@H]5CC[C@@H](C(=O)N[C@H](CCC(N)=O)C(=O)NCc6ccc(S(C)(=O)=O)cc6)N5C(=O)[C@@H](NC(=O)c5cc6cc(C(=O)P(=O)(O)O)ccc6[nH]5)C4)CC3)cc21 (stereo partly drawn) [Compound I-230, 2-[[(5S,8S,10aR)-8-[[(1R)-3-carbamoyl-1-[[(4-methanesulfonylphenyl)methyl]carbamoyl]propyl]carbamoyl]-6-oxo-3-[2-[(1S,4S)-4-[[1-(2,6-dioxopiperidin-3-yl)-3-methyl-2-oxo-1,3-benzodiazol-5-yl]methyl]cyclohexyl]acetyl]-octahydropyrrolo[1,2-a][1,5]diazocin-5-yl]carbamoyl]-1H-indole-5-carbonylphosphonic acid] | > 1000 |
| CC(=O)N1CC[C@H]2CC[C@@H](C(=O)N[C@@H](CCC(N)=O)COc3cccc(CCCC(=O)N[C@H](C(=O)N4C[C@H](O)C[C@H]4C(=O)N[C@@H](C)c4ccc(-c5scnc5C)cc4)C(C)(C)C)c3F)N2C(=O)[C@@H](NC(=O)c2cc3cc(C(=O)P(=O)(O)O)ccc3[nH]2)C1 [Compound I-231, diammonium 2-[[(5S,8S,10aR)-3-acetyl-8-[[(2S)-4-carbamoyl-1-[2-fluoro-3-(3[[(2S)-1-[(2S,4R)-4-hydroxy-2-[[(1S)-1-[4-(4-methyl-1,3-thiazo1-5-yl)phenyl]ethyl]carbamoyl]pyrrolidin-1-yl]-3,3-dimethyl-1-oxobutan-2-yl]carbamoyl]propyl)phenoxy]butan-2-yl]carbamoyl]-6-oxo-octahydropyrrolo[1,2-a][1,5]diazocin-5-yl]carbamoyl]-1H-indole-5-carbonylphosphonate] | 10 to 100 |
| CC(C)c1ccc(CNC(=O)[C@H](CCC(N)=O)NC(=O)[C@@H]2Cc3cc(CCCCCCc4ccc5c(c4)n(C)c(=O)n5C4CCC(=O)NC4=O)cc4c3N2C(=O)[C@@H](NC(=O)c2cc3cc(C(=O)P(=O)(O)O)ccc3[nH]2)CC4)cc1 (stereo partly drawn) [Compound I-232, 2-[[(2S,11S)-2-[[(1S)-3-carbamoyl-1-[[(4-isopropylphenyl)methyl]carbamoyl]propyl]carbamoyl]-6-[6-[1-(2,6-dioxopiperidin-3-yl)-3-methyl-2-oxo-1,3-benzodiazol-5-yl]hexyl]-12-oxo-1-azatricyclo[6.4.1.0^[4,13]]trideca-4(13),5,7-trien-11-yl]carbamoyl]-1H-indole-5-carbonylphosphonic acid] | 10 to 100 |

Same assay, conditions: read-out: STAT3 HiBiT A549 degradation 24 h: Average external-Abs DC50; A549, 24 h

| SMILES | DC50 [nM] |
| --- | --- |
| Cn1c(=O)n([C@@H]2CCC(=O)NC2=O)c2ccc(C[C@H]3CC[C@@H](CC(=O)N4CC[C@H]5CC[C@@H](C(=O)N[C@@H](CCC(N)=O)C(=O)NC(c6ccccc6)c6ccccc6)N5C(=O)[C@@H](NC(=O)c5cc6cc(C(=O)P(=O)(O)O)ccc6[nH]5)C4)CC3)cc21 [Compound I-234, (2-(((5S,8S,10aR)-8-(((S)-5-amino-1-(benzhydrylamino)-1,5-dioxopentan-2-yl)carbamoyl)-3-(2-((1S,4R)-4-((1-((R)-2,6-dioxopiperidin-3-yl)-3-methyl-2-oxo-2,3-dihydro-1H-benzo[d]imidazol-5-yl)methyl)cyclohexyl)acetyl)-6-oxodecahydropyrrolo[1,2-a][1,5]diazocin-5-yl)carbamoyl)-1H-indole-5-carbonyl)phosphonic acid] | 10 to 100 |
